This is an account of results in patent US20220087974A1, “METHOD AGAINST CORONAVIRUS INFECTION WITH COUMARIN-DERIVED COMPOUND” (CHANG GUNG UNIVERSITY, priority 2020, published 2022).

The test system of assay [1] is HcoV-229E. Kind of assay: MTT cell viability assay of HcoV-229E-infected Vero E6 cells. It is filed as cell-based, human coronavirus 229E. The procedure: Vero E6 cells were divided into 5 groups, including one normal control group, one pathological control group, and three experimental groups (i.e., experimental groups 1 to 3). Each group of the Vero E6 cells was incubated in a respective well of a 96-well culture plate containing 100 μL of E2 medium at 2×10^4 cells/well, followed by cultivation in an incubator (37° C., 5% CO2) for 24 hours. Afterwards, the culture medium in each well was removed, and the cells of the experimental groups 1 to 3 were pretreated with 8-benzoyl-4-methyl-9-phenyl-furo[2,3-h]chromen-2-one (i.e., HP520-2) (Cat. No. STL-513320, Vitas-M Laboratory) respectively at concentrations of 20 nM, 40 nM, and 80 nM, followed by adding 150 μL of the HcoV-229E solution prepared in section 2 of General Experimental Materials. […]
Each group was cultivated in an incubator (37° C., 5% CO2) for 96 hours. […] After cultivation in an incubator (37° C., 5% CO2) for 2 hours, the respective resultant cell culture was added with 150 μL of dimethyl sulfoxide (DMSO), followed by subjecting the mixture thus obtained to determination of absorbance at a wavelength of 590 nm (OD590) by an ELISA reader.
The cell viability rate (%) was calculated using the following Equation (I): […]
(Formazan colour is commonly taken as a measure of viable cells.)

The subject of assay [2] is SARS-CoV-2. Kind of assay: Viral plaque reduction assay. The note with it: SARS-CoV-2-infected Vero E6 cells, m.o.i. 0.01, HP520-2, 72 hours, versus pathological control group. It is filed as cell-based.
Assay [3] deals with Envelope (E) gene of SARS-CoV-2. Kind of assay: Quantitative determination of viral gene expression (real-time PCR of E gene). It is filed as cell-based, severe acute respiratory syndrome coronavirus 2. The settings on record: Vero E6 cells pretreated at 15.625 nM and 62.5 nM (experimental groups 2 to 3), m.o.i. 0.01, versus pathological control group.

As a reminder, the EC50 is the concentration needed to bring the measured effect to its halfway point. Lower therefore signals higher potency in that assay. In assay [1] (Human coronavirus 229E, Vero C1008, Vero E6 cells, HcoV-229E, 96 hours, MTT, n=3, mean±SD), `Cc1cc(=O)oc2c1ccc1oc(C(=O)c3ccccc3)c(-c3ccccc3)c12` [HP520-2, 8-benzoyl-4-methyl-9-phenyl-furo[2,3-h]chromen-2-one] registered an EC50 of 39 ± 15 nM. Further, the cell viability rate result in assay [1] (Vero E6 cells pretreated at 20 nM, 40 nM, 80 nM, versus pathological control group, FIG. 1) is reported as “significantly higher than that determined in the pathological control group”. Besides, the “number of viral plaques” value in assay [2] is “lower than that determined in the pathological control group”. Also, the “relative RNA expression level of E gene of SARS-CoV-2” value in assay [3] was “significantly lower than that of the pathological control group”.
